Data from the supplement of paper PMC10307832.

Key:
Test in all cases: relative viability (nuclei count vs DMSO), 5 days (fraction); higher = more cells survive
[1] = compound: CN(C)C(=N)NC(=N)N [Metformin] + Cc1cc(Nc2cc(N3CCN(C)CC3)nc(Sc3ccc(NC(=O)C4CC4)cc3)n2)n[nH]1 [Tozasertib] (partner 0.1 µM)
In short: (§1)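 Relative viability equals treated-well nuclei counts divided by vehicle-well nuclei counts. Counts came from 4× images of lung cancer cell lines grown in 1536-well plates for 5 days after pin-tool dosing on the day after seeding. Dosing used one drug alone or a fixed anchor-drug dose plus five library-drug doses (not always all listed) in √10 steps, and values are medians of duplicate plates.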

[2] = compound: N#CC1(c2ccc(NC(=O)c3cccnc3NCc3ccncc3)cc2)CCCC1 [Apatinib] + CC(=O)c1c(C)c2cnc(Nc3ccc(N4CCNCC4)cn3)nc2n(C2CCCC2)c1=O [Palbociclib] (partner 0.5 µM)
In short: as §1

[3] = compound: N#CC1(c2ccc(NC(=O)c3cccnc3NCc3ccncc3)cc2)CCCC1 [Apatinib] + CC1(C)CCC(c2ccc(Cl)cc2)=C(CN2CCN(c3ccc(C(=O)NS(=O)(=O)c4ccc(N[C@H](CCN5CCOCC5)CSc5ccccc5)c(S(=O)(=O)C(F)(F)F)c4)cc3)CC2)C1 [Navitoclax] (partner 0.5 µM)
In short: as §1

[4] = compound: N#CC1(c2ccc(NC(=O)c3cccnc3NCc3ccncc3)cc2)CCCC1 [Apatinib] + C[C@]1(O)C[C@@H](c2nc(-c3ccc4ccc(-c5ccccc5)nc4c3)c3c(N)nccn32)C1 [Linsitinib] (partner 1 µM)
In short: as §1

Row | Cell Line | relative viability ([1]; first compound 31.62 µM) | relative viability ([1]; first compound 100 µM) | relative viability ([1]; first compound 316.23 µM) | relative viability ([1]; first compound 1000 µM) | relative viability ([2]; first compound 0.08 µM) | relative viability ([2]; first compound 0.253 µM) | relative viability ([2]; first compound 0.8 µM) | relative viability ([2]; first compound 2.53 µM) | relative viability ([2]; first compound 8 µM) | relative viability ([3]; first compound 0.08 µM) | relative viability ([3]; first compound 0.253 µM) | relative viability ([3]; first compound 0.8 µM) | relative viability ([3]; first compound 2.53 µM) | relative viability ([3]; first compound 8 µM) | relative viability ([4]; first compound 0.08 µM) | relative viability ([4]; first compound 0.253 µM) | relative viability ([4]; first compound 0.8 µM) | relative viability ([4]; first compound 2.53 µM) | relative viability ([4]; first compound 8 µM) | relative viability ([1]; first compound 10 µM)
1 | NCI-H2087 | 0.281 | 0.246 | 0.253 | 0.245 | 0.231 | 0.256 | 0.248 | 0.266 | 0.178 | 1.06 | 1.05 | 0.847 | 0.963 | 0.782 | 1.07 | 0.925 | 0.907 | 0.924 | 0.716 | 
2 | LK-2 | 0.189 | 0.183 | 0.174 | 0.174 | 0.762 | 0.481 | 0.758 | 0.484 | 0.356 | 0.879 | 0.857 | 0.885 | 0.769 | 0.634 | 0.602 | 0.356 | 0.631 | 0.503 | 0.399 | 0.163
3 | NCI-H2347 | 0.51 |  | 0.492 | 0.63 | 0.469 | 0.407 | 0.452 | 0.384 | 0.392 | 0.783 | 0.698 | 0.948 | 0.728 | 0.74 | 1 | 0.888 | 1.01 | 0.932 | 0.9 | 0.627
4 | COR-L 105 | 0.336 | 0.37 | 0.307 | 0.321 | 0.428 | 0.397 | 0.365 | 0.365 | 0.42 | 0.665 | 1.03 | 0.695 | 0.841 | 0.636 | 0.994 | 1.15 | 0.705 | 0.985 | 0.676 | 0.355
5 | NCI-H1437 | 0.44 | 0.405 | 0.411 | 0.418 | 0.314 | 0.3 | 0.277 | 0.254 | 0.209 | 1.12 | 1.14 | 0.939 | 0.928 | 0.776 | 1.03 | 1.06 | 0.879 | 0.653 | 0.475 | 0.403
6 | SK-LU-1 | 0.311 | 0.272 | 0.263 | 0.307 | 0.372 | 0.402 | 0.433 | 0.381 | 0.339 | 0.965 | 1.35 | 0.705 | 0.638 | 0.631 | 1.1 | 1.3 | 1.04 | 0.809 | 0.787 | 0.263
7 | NCI-H1755 | 0.519 | 0.474 | 0.509 | 0.497 | 0.462 | 0.464 | 0.434 | 0.404 | 0.422 | 1 | 0.968 | 0.963 | 0.952 | 0.865 | 0.976 | 0.97 | 0.964 | 0.977 | 0.709 | 0.446
8 | NCI-H2405 | 0.732 | 0.801 | 0.763 | 0.716 | 0.528 | 0.569 | 0.546 | 0.513 | 0.479 | 1.03 | 1.07 | 1.01 | 0.832 | 0.803 | 1.05 | 1.12 | 1.05 | 0.95 | 0.955 | 0.701
9 | NCI-H1993 | 0.551 | 0.609 | 0.571 | 0.596 | 0.783 | 0.736 | 0.597 | 0.528 | 0.616 | 1.13 | 0.822 | 0.813 | 0.688 | 0.772 | 0.751 | 0.648 | 0.742 | 0.715 | 0.775 | 0.622
10 | NCI-H322M | 0.454 | 0.437 | 0.432 | 0.419 | 0.464 | 0.539 | 0.499 | 0.51 | 0.57 | 1.28 | 1.11 | 1.25 | 1.32 | 1.12 | 1.13 | 0.878 | 0.978 | 0.974 | 0.842 | 0.48
11 | EMC-BAC-2 | 0.307 | 0.317 | 0.289 | 0.32 | 0.518 | 0.536 | 0.506 | 0.449 | 0.412 | 1.2 | 1.13 | 1.14 | 1.07 | 0.974 | 0.815 | 0.816 | 0.766 | 0.72 | 0.78 | 0.29
12 | NCI-H2228 | 0.31 | 0.241 | 0.333 | 0.409 | 0.668 | 0.788 | 0.776 | 0.708 | 0.667 | 1.02 | 0.988 | 0.738 | 0.708 | 0.751 | 0.708 | 0.501 | 0.521 | 0.629 | 0.629 | 0.27
13 | PC-14 | 0.714 | 0.673 | 0.674 | 0.814 | 0.555 | 0.619 | 0.493 | 0.611 | 0.33 | 1.04 | 0.968 | 0.967 | 0.986 | 0.937 | 0.988 | 1.03 | 0.86 | 0.95 | 1.02 | 0.618
14 | RERF-LC-KJ | 0.273 | 0.403 | 0.277 | 0.352 | 1.11 | 1.1 | 0.467 | 1.05 | 0.984 | 0.931 | 1.04 | 0.874 | 0.557 | 0.997 | 0.908 | 0.908 | 0.821 | 0.845 | 0.757 | 0.329
15 | NCI-H2085 | 0.746 | 0.896 | 0.773 | 0.841 | 0.469 | 0.493 | 0.487 | 0.416 | 0.437 | 1.18 | 1.23 | 1.18 | 1.05 | 0.949 | 0.879 | 0.987 | 0.949 | 0.745 | 0.815 | 0.85
16 | LC-2-ad | 0.412 | 0.524 | 0.469 | 0.506 | 0.476 | 0.501 | 0.516 | 0.436 | 0.356 | 0.414 | 0.457 | 0.387 | 0.287 | 0.235 | 0.863 | 0.831 | 0.864 | 0.652 | 0.507 | 
